Experimental data: patent EP3592343B1, “CANCER IMMUNOTHERAPY USING VIRUS PARTICLES” (Case Western Reserve University, priority 2017, dated 2018)

Tests used:
[1] = test system: B16F10 melanoma cells; test: MTT cell viability assay, B16F10; format: cell-based, murine; settings: Mus musculus, B16-F10, 24 h exposure then 48 h
Procedure: B16F10 cells (ATCC) were cultured in Dulbecco's modified Eagle's media (DMEM, Life Technologies), supplemented with 10% (v/v) fetal bovine serum (FBS, Atlanta Biologicals) and 1% (v/v) penicillin-streptomycin (penstrep, Life Technologies). Cells were maintained at 37°C, 5% CO2. Confluent cells were removed with 0.05% (w/v) trypsin-EDTA (Life Technologies), seeded at 2 x 10^3 cells/100µL/well in 96-well plates, and grown overnight at 37°C, 5% CO2. The next day, cells were washed 2 times with PBS and incubated with free DOX or PVX-DOX corresponding to 0, 0.01, 0.05, 0.1, 0.5, 1, 5, or 10 µM DOX for 24 h, in triplicate. A PVX only control corresponded to the amount of PVX in the highest PVX-DOX sample. Following incubation, cells were washed 2 times to remove unbound DOX or particles. Fresh medium (100 µL) was added and cells were returned to the […] incubator for 48 h.

[2] = test system: A2780 cells; test: tracking of free DOX and PVX-DOX in cells (fluorescence microscopy); format: cell-based, human; settings: 1.5 µM DOX, at 48 h
Procedure: A2780 cells were grown to confluency and removed with 0.05% (w/v) trypsin-EDTA. Cells were seeded at 1 × 10^4 cells/500 µL/well on coverslips in untreated 24-well plates and grown overnight at 37°C, 5% CO2. The next day, cells were washed 3 times and incubated with free DOX or PVX-DOX (1.5 µM DOX) for 2, 4, 12, 24, or 48 h. Following incubation, cells were washed 3 times and fixed in DPBS (Corning) containing 5% (v/v) paraformaldehyde (Electron Microscopy Sciences) and 0.3% (v/v) glutaraldehyde (Polysciences) for 10 min at room temperature. Coverslips were mounted using Fluoroshield (Sigma). Slides were imaged on a Zeiss Axio Observer Z1 motorized FL inverted microscope. Fluorescence intensity was analysed as follows using ImageJ 1.47d. All images were identically processed prior to fluorescence intensity measurement. Nuclei were selected and analyzed for fluorescence intensity using the measure feature of ImageJ. For each sample, a minimum of 3 images was analyzed and at least 4 cells were analyzed per image.

[3] = test system: A2780 human ovarian cancer; test: MTT cytotoxicity evaluation, A2780; format: cell-based
Procedure: (§1) A2780, a gift from Dr. Analisa DiFeo (Case Western Reserve University) were cultured in Dulbecco's modified Eagle's media (DMEM, Life Technologies), supplemented with 10% (v/v) fetal bovine serum (FBS, Atlanta Biologicals) and 1% (v/v) penicillin-streptomycin (penstrep, Life Technologies). HeLa (ATCC) were cultured in minimum essential media (MEM, Life Technologies), supplemented with 10% (v/v) FBS, 1% (v/v) penstrep, and 1% (v/v) L-glutamine (Life Technologies). MDA-MB-231, a gift from Dr. Ruth Keri (Case Western Reserve University), were cultured in Roswell Park Memorial Institute (RPMI, Life Technologies) medium supplemented with 10% (v/v) FBS, 1% (v/v) penstrep, and 1% (v/v) L-glutamine. All cells were maintained at 37°C and 5% CO2.
(§2) Confluent cells were removed with 0.05% (w/v) trypsin-EDTA (Life Technologies), seeded at either 2 × 10^3 cells/100 µL/well (MDA-MB-231 and HeLa) or 5 × 10^3 cells/100 µL/well (A2780) in 96-well plates and grown overnight at 37°C, 5% CO2. The next day, cells were washed 2 times with PBS and incubated with free DOX, PVX-DOX, or PEG-PVX-DOX corresponding to 0, 0.01, 0.05, 0.1, 0.5, 1, 5, or 10 µM (A2780, MDA-MB-231) or 0, 0.1, 0.5, 1, 5, 10, 25, or 50 µM (HeLa) DOX for 24 h, in triplicate. A PVX only control corresponded to the amount of PVX in the highest PVX-DOX sample. Following incubation, cells were washed 2 times to remove unbound DOX or particles. […]

[4] = test system: MDA-MB-231 human breast cancer; test: MTT cytotoxicity evaluation, MDA-MB-231; format: cell-based; settings: MDA-MB-231, 24 h exposure then 48 h, MTT assay
Procedure: as §1, §2

[5] = test system: HeLa human cervical cancer; test: MTT cytotoxicity evaluation, HeLa; format: cell-based; settings: 24 h exposure then 48 h, MTT assay
Procedure: as §1, §2

[6] = test system: MDA-MB-231 tumors; test: MDA-MB-231 tumor-bearing athymic mouse model, intravenous treatment; format: in vivo, NCR nu/nu mice; settings: 1 mg/kg DOX i.v. every 5 days
Procedure: All experiments were conducted in accordance with Case Western Reserve University's Institutional Animal Care and Use Committee. Female NCR nu/nu mice (6 weeks old) were injected subcutaneously into the right flank with 2 × 10^6 MDA-MB-231 cells suspended in 100 µL of media and Matrigel (Corning) at a 1:1 ratio. When tumors reached 100-200 mm^3, a dosage of 1.0 mg/kg body weight DOX was injected intravenously (this dosage corresponds to 1.0 - 2.0 mg PVX depending on batches). Groups of 4 animals each were treated with PEG-PVX-DOX, free DOX, or PBS. The dosage was normalized to the DOX content. Treatments were performed every 5 days, and a total of 5 treatments was given.
Tumors were measured daily and total volume was calculated using the formula: v = (l × w^2)/2. Mice were euthanized following 25 days of treatment.

For `COc1cccc2c1C(=O)c1c(O)c3c(c(O)c1C2=O)C[C@@](O)(C(=O)CO)C[C@@H]3O[C@H]1C[C@H](N)[C@H](O)[C@H](C)O1` [DOX, doxorubicin], the IC50 [1] was 0.28 µM, the drug-induced apoptosis [2] was “apparent” and the “cell killing effectiveness relative to PVX-DOX” value ([3]; A2780, MTT assay) was 4 times. The IC50 ([3]; Homo sapiens, A2780, 24 h exposure then 48 h, MTT assay) was 0.22 µM, the IC50 [4] was 0.13 µM and the IC50 [5] was 1.6 µM. The “day post first treatment from which differences to PBS were statistically significant” value ([6]; p<0.05) was over 22 days and the “tumor volumes smaller than the PBS control” value ([6]; at the end of the treatment, 5 injections) was 2.1 times.
